Legend:
[1] = tested on: Puccinia recondita f. sp. tritici (the causal agent of wheat leaf rust); assay: Test C: preventive spray on wheat seedlings, wheat leaf rust, visual disease rating; type: in vivo; conditions: wheat seedlings
Outline: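 Wheat seedlings sprayed to run-off with compound in acetone/water (50/50) with 250 ppm PEG400, then inoculated with spores the following day. After 24 h saturated humidity at 20° C. and 6 days in growth chamber at 20° C., disease rated visually as % control relative to untreated controls.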

[2] = tested on: Phakopsora pachyrhizi (the causal agent of Asian soybean rust); assay: Test A: preventive spray on soybean seedlings, Asian soybean rust, visual disease rating; type: in vivo; conditions: soybean seedlings
Outline: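 Compound in acetone/water (50/50) with 250 ppm PEG400 sprayed to run-off on soybean seedlings; inoculated next day with Phakopsora pachyrhizi spores. Held 24 h at 22° C in saturated atmosphere, then 8 days in a 22° C growth chamber before visual rating as % disease control relative to controls.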

[3] = test suspension 10 ppm, 100 = 100% disease control, 0 = no control
[4] = 50 ppm test suspension, 100 = 100% disease control, 0 = no control
[5] = 10 ppm test suspension, 100 = 100% disease control, 0 = no control

Structure (SMILES)	Test C disease control rating ([1]; test suspension 10 ppm)	Test A disease control rating [2, 3]	also measured
N#Cc1ccc(COC(=O)c2cnn(Cc3ccc(-c4noc(C(F)(F)F)n4)cc3)c2)cc1 [compound 301]	100%	100%	
CCN(CC)C(=O)C1=NOC(Cc2ccc(-c3noc(C(F)(F)F)n3)s2)C1 (stereo not drawn) [compound 430]			Test C disease control rating [1, 4]: 100%; Test A disease control rating [2, 4]: 100%
O=C(OCC(F)F)c1cnn(Cc2ccc(-c3noc(C(F)(F)F)n3)cc2)c1 [compound 392]			Test C disease control rating [1, 5]: 100%; Test A disease control rating [2, 5]: 100%
O=c1ccc(Cl)nn1Cc1ccc(-c2noc(C(F)(F)F)n2)cc1 [Compound 4, 6-chloro-2-[[4-[5-(trifluoromethyl)-1,2,4-oxadiazol-3-yl]phenyl]methyl]-3(2H)-pyridazinone]			pest or weed control at 50 µg/mL ([1]; Puccinia recondita, 168 h, test suspension 50 ppm): 100%; pest or weed control at 50 µg/mL ([2]; Phakopsora pachyrhizi, 216 h, test suspension 50 ppm): 100%
CON=C(C)COC(=O)c1cnn(Cc2ccc(-c3noc(C(F)(F)F)n3)cc2)c1 [compound 350]	99%	100%	
COCCCOC(=O)c1cnn(Cc2ccc(-c3noc(C(F)(F)F)n3)cc2)c1 [compound 474]			Test C disease control rating [1, 5]: 100%; Test A disease control rating [2, 5]: 100%
CCOC(=O)COC(=O)c1cnn(Cc2ccc(-c3noc(C(F)(F)F)n3)cc2)c1 [compound 476]			Test C disease control rating [1, 5]: 86%; Test A disease control rating [2, 5]: 100%
CCOC(=O)C1(Cc2ccc(-c3noc(C(F)(F)F)n3)cc2)CCCNC1=O (stereo not drawn) [compound 432]			Test C disease control rating [1, 4]: 92%; Test A disease control rating [2, 4]: 100%
O=C(OCCCCl)c1cnn(Cc2ccc(-c3noc(C(F)(F)F)n3)cc2)c1 [compound 448]			Test C disease control rating [1, 5]: 100%; Test A disease control rating [2, 5]: 100%
Cn1c(C(F)(F)F)nn(Cc2ccc(-c3noc(C(F)(F)F)n3)cc2)c1=O [compound 267]			Test C disease control rating ([1]; test suspension 50 ppm): 74%; Test A disease control rating ([2]; test suspension 50 ppm): 99%
CCCCCOC(=O)c1cnn(Cc2ccc(-c3noc(C(F)(F)F)n3)cc2)c1 [compound 447]			Test C disease control rating [1, 5]: 100%; Test A disease control rating [2, 5]: 100%
FC(F)(F)c1nc(-c2ccc(CN3Cc4ccccc4C3)cc2)no1 [compound 160]	98%	99%	
CCOC(=O)c1cnn(CS(=O)(=O)Cc2ccc(-c3noc(C(F)(F)F)n3)cc2)c1 [compound 243]	85%	98%	
O=C(COC(=O)c1cnn(Cc2ccc(-c3noc(C(F)(F)F)n3)cc2)c1)c1ccccc1 [compound 244]	95%	100%	
CC(C)NC(=O)c1cnn(Cc2ccc(-c3noc(C(F)(F)F)n3)cc2)c1 [compound 63]	100%	100%	
O=C(OCC#Cc1ccccc1)c1cnn(Cc2ccc(-c3noc(C(F)(F)F)n3)cc2)c1 [compound 299]	86%	100%	
FC(F)(F)c1nc(-c2ccc(Cn3ccc4ccncc43)cc2)no1 [compound 135]	0%	96%	
CCOC(=O)c1cc(CC)nn1Cc1ccc(-c2noc(C(F)(F)F)n2)cc1 [compound 81]	0%	100%	
FC(F)(F)c1nc(-c2ccc(Cn3ccc(Br)n3)cc2)no1 [compound 97]			Test C disease control rating ([1]; test suspension 50 ppm): 100%; Test A disease control rating ([2]; test suspension 50 ppm): 99%
Cc1c2c(Br)cccc2nn1Cc1ccc(-c2noc(C(F)(F)F)n2)cc1 [compound 37]	86%	99%	
COC(=O)c1cccn(Cc2ccc(-c3noc(C(F)(F)F)n3)cc2)c1=O [compound 422]			Test C disease control rating [1, 5]: 93%; Test A disease control rating [2, 5]: 90%
COCCNC(=O)c1nn(Cc2ccc(-c3noc(C(F)(F)F)n3)cc2)c2ccccc12 [compound 46]	100%	100%	
Cc1cc(C(=O)O)nn1Cc1ccc(-c2noc(C(F)(F)F)n2)cc1 [compound 179]	9%	98%	
CONC(=O)c1cnn(Cc2ccc(-c3noc(C(F)(F)F)n3)cc2)c1 [compound 272]	100%	100%	
COC(=O)c1cccc2c1cnn2Cc1ccc(-c2noc(C(F)(F)F)n2)cc1 [compound 341]	100%	100%	
COC(=O)c1ccc2nn(Cc3ccc(-c4noc(C(F)(F)F)n4)cc3)nc2c1 [compound 23]	100%	100%	
CCCNC(=O)c1cnn(Cc2ccc(-c3noc(C(F)(F)F)n3)cc2)c1 [compound 68]	100%	100%	

Structure (SMILES)	Test C disease control rating ([1]; test suspension 10 ppm)	Test A disease control rating [2, 3]	also measured
CCC#CCOC(=O)c1cnn(Cc2ccc(-c3noc(C(F)(F)F)n3)cc2)c1 [compound 339]	98%	100%	
FC(F)(F)c1nc(-c2ccc(Cn3nc4ccccc4c3Br)cc2)no1 [compound 113]	0%	99%	
FC(F)(F)c1nc(-c2ccc(Cn3ncc4ncccc43)cc2)no1 [compound 408]			Test C disease control rating [1, 5]: 100%; Test A disease control rating [2, 5]: 100%
Cc1cc2nn(Cc3ccc(-c4noc(C(F)(F)F)n4)cc3)cc2cc1Br [compound 33]	68%	100%	
C=CCOC(=O)c1cc(C)n(Cc2ccc(-c3noc(C(F)(F)F)n3)cc2)n1 [compound 186]	74%	100%	
C#CCOC(=O)c1cnn(CCCc2ccc(-c3noc(C(F)(F)F)n3)cc2)c1 [compound 374]	96%	100%	
CSc1nnn(Cc2ccc(-c3noc(C(F)(F)F)n3)cc2)c1C [compound 40]	92%	100%	
FC(F)(F)c1nc(-c2ccc(Cn3ccc(Br)n3)s2)no1 [compound 72]			Test C disease control rating ([1]; test suspension 50 ppm): 100%; Test A disease control rating ([2]; test suspension 50 ppm): 99%
COC(=O)c1ccc2c(cnn2Cc2ccc(-c3noc(C(F)(F)F)n3)cc2)c1 [compound 48]	89%	100%	
CCOC(=O)Nc1cnn(Cc2ccc(-c3noc(C(F)(F)F)n3)cc2)c1 [compound 443]			Test C disease control rating [1, 5]: 74%; Test A disease control rating [2, 5]: 100%
CCOC(=O)c1cn(Cc2ccc(-c3noc(C(F)(F)F)n3)cc2)nn1 [compound 303]	100%	100%	
N#CC1CCN(Cc2ccc(-c3noc(C(F)(F)F)n3)cc2)C1 (stereo not drawn) [compound 151]			Test C disease control rating ([1]; test suspension 50 ppm): 98%; Test A disease control rating ([2]; test suspension 50 ppm): 100%
FC(F)(F)c1nc(-c2ccc(Cn3cc4cc(Br)cnc4n3)cc2)no1 [compound 414]			Test C disease control rating [1, 5]: 100%; Test A disease control rating [2, 5]: 100%
COC(=O)c1cccc2cnn(Cc3ccc(-c4noc(C(F)(F)F)n4)cc3)c12 [compound 47]	74%	100%	
FC(F)(F)c1nc(-c2ccc(CCCn3ccc(-c4ccc(Cl)cc4)n3)cc2)no1 [compound 361]	0%	100%	
CSCC(=O)COC(=O)c1cnn(Cc2ccc(-c3noc(C(F)(F)F)n3)cc2)c1 [compound 434]			Test C disease control rating [1, 5]: 98%; Test A disease control rating [2, 5]: 100%
CCOC(=O)c1cnn(CSCc2ccc(-c3noc(C(F)(F)F)n3)cc2)c1 [compound 241]	100%	100%	
COc1ccn(Cc2ccc(-c3noc(C(F)(F)F)n3)cc2)c(=O)c1 [compound 421]			Test C disease control rating [1, 5]: 100%; Test A disease control rating [2, 5]: 100%
CCON=Cc1cnn(Cc2ccc(-c3noc(C(F)(F)F)n3)cc2)c1 [compound 384]			Test C disease control rating [1, 5]: 100%; Test A disease control rating [2, 5]: 100%
CC(COC(=O)c1cnn(Cc2ccc(-c3noc(C(F)(F)F)n3)cc2)c1)=NOC(C)C [compound 222]	97%	100%	
FC(F)(F)c1nc(-c2ccc(Cn3ncc4c(Cl)cc(Br)cc43)cc2)no1 [compound 53]	9%	0%	
Cc1nn(Cc2ccc(-c3noc(C(F)(F)F)n3)cc2)c2ccc(Br)cc12 [compound 51]	68%	99%	
CC(C)CCOC(=O)c1cnn(Cc2ccc(-c3noc(C(F)(F)F)n3)cc2)c1 [compound 480]			Test C disease control rating [1, 5]: 98%; Test A disease control rating [2, 5]: 100%
CCOC(CC(=O)c1cnn(Cc2ccc(-c3noc(C(F)(F)F)n3)cc2)c1)OCC [compound 391]			Test C disease control rating [1, 5]: 100%; Test A disease control rating [2, 5]: 100%
C=CCNC(=O)c1cnn(Cc2ccc(-c3noc(C(F)(F)F)n3)cc2)c1 [compound 64]	100%	100%	
FC(F)(F)c1nc(-c2ccc(Cn3ncc4c(I)ccnc43)cc2)no1 [compound 444]			Test C disease control rating [1, 5]: 86%; Test A disease control rating [2, 5]: 96%
COC(=O)C=CCOC(=O)c1cnn(Cc2ccc(-c3noc(C(F)(F)F)n3)cc2)c1 [compound 275]	100%	100%	

From patent US20240090503A1, “FUNGICIDAL OXADIAZOLES AND THEIR MIXTURES” (FMC CORPORATION, priority 2020, published 2024)
